Assay results published in EP1733725B2, “Pharmaceutical solution comprising ritonavir, a solvent (long chain fatty acid) and water” (ABBOTT LABORATORIES, priority 1999, dated 2000).
Where two headings read alike, the source gives them in different places.

Experiment: oral bioavailability in dogs
Assay type: in vivo, beagle dogs
Details: dog, 5 mg/kg
Experimental: Protocol for Oral Bioavailability
Dogs (beagle dogs, mixed sexes, weighing 7-14 kg) were fasted overnight prior to dosing, but were permitted water ad libitum. Each dog received a 100 µg/kg subcutaneous dose of histamine approximately 30 minutes prior to dosing. Each dog received a single dosage form corresponding to a 5 mg/kg dose of the drug. The dose was followed by approximately 10 milliliters of water. Blood samples were obtained from each animal prior to dosing and 0.25, 0.5, 1.0, 1.5, 2, 3, 4, 6, 8, 10, and 12 hours after drug administration. The plasma was separated from the red cells by centrifugation and frozen (-30 °C) until analysis. Concentrations of parent drug were determined by reverse phase HPLC with low wavelength UV detection following liquid-liquid extraction of the plasma samples. The parent drug area under the curve was calculated by the trapezoidal method over the time course of the study. The absolute bioavailability of each test composition as calculated by comparing the area under the curve after oral dosing to that obtained from a single intravenous dose. Each capsule or capsule composition was evaluated in a group containing at least six dogs; the values reported are averages for each group of dogs.

Compound	bioavailability (in vivo, administered as an unformulated solid in a capsule dosage form, 5 mg/kg oral dose in dogs, read-out: bioavailability) [%]	bioavailability (both sexes, beagle, plasma, administered as an unformulated solid in a capsule dosage form, 5 mg/kg oral dose in dogs, read-out: bioavailability) [%]	bioavailability (both sexes, beagle, plasma, solution in pharmaceutically acceptable organic solvents with long chain fatty acid, as encapsulated dosage form (soft elastic capsules or hard gelatin capsules), printed 'as high as about 60% or more', read-out: oral bioavailability) [%]
CC(C)c1nc(CN(C)C(=O)NC(C(=O)NC(Cc2ccccc2)CC(O)C(Cc2ccccc2)NC(=O)OCc2cncs2)C(C)C)cs1 (stereo not drawn) [bistosylate]	< 2		
CC(C)c1nc(CN(C)C(=O)N[C@H](C(=O)N[C@@H](Cc2ccccc2)C[C@H](O)[C@H](Cc2ccccc2)NC(=O)OCc2cncs2)C(C)C)cs1 [compound of formula III]		< 2	~60
